Experimental data as given in publication PMC10502027, “Class III hybrid cluster protein homodimeric architecture shows evolutionary relationship with Ni, Fe-carbon monoxide dehydrogenases” (Nature Communications, 2023).

Target: T1, Mm HCP (Methanothermobacter marburgensis, UniProt D9PYV4)
T1 construct: full length with N-terminal rubredoxin domain (Met1-Arg52), C-terminal His6-tag, recombinant from E. coli C41(DE3) with pBBRISC, anaerobically purified; homodimer
T1 sequence (D9PYV4 1-491): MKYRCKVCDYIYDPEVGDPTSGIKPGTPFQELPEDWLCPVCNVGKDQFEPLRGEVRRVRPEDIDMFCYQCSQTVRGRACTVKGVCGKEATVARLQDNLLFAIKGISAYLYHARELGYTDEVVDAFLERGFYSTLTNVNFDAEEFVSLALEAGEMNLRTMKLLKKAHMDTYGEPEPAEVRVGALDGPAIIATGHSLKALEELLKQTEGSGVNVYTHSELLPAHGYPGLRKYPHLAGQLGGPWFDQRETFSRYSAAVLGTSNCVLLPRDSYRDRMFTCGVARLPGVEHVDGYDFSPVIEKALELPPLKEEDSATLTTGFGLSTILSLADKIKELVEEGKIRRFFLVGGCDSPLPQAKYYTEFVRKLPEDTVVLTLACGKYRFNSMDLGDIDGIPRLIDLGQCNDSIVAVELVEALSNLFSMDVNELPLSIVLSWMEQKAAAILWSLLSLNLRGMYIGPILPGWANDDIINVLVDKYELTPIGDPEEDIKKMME
Format: binding

## [S]12[Fe]3[S]4[Fe]1[S]1[Fe]2[S]3[Fe]41 [[4Fe-4S] cluster]
  X-ray crystal structure, 2.8 Å: The Fe ions, [4Fe-4S] cluster and hybrid cluster ([4Fe-2S-3O] cluster) are represented as spheres
